{"source": "paper PMC6516726", "about": "(ACS Catalysis, 2018)", "key": {"[1]": {"target": "T1, WT PETNR (Enterobacter cloacae, UniProt P71278)", "T1 sequence (P71278 entry or part of it)": "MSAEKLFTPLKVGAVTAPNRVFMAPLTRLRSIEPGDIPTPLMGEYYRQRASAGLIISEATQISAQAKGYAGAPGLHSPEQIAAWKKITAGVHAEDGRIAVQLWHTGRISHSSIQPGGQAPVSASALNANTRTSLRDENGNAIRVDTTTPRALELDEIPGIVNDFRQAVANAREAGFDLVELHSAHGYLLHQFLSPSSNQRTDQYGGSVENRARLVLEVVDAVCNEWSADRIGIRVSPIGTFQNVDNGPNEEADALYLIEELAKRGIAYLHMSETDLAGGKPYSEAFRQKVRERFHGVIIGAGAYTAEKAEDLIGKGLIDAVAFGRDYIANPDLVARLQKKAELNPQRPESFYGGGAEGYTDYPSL", "test": "Stopped-flow FMN reduction (reductive half-reaction, hydride transfer) of WT PETNR by coenzyme", "conditions": "for kobs1 / A2 (amplitude of kobs2 out of total absorbance change) / kobs2: 10 mM NADPH or 25 mM NADH, pH 7.0"}, "[2]": {"target": "L25I PETNR (Enterobacter cloacae, UniProt P71278, L26I)", "sequence (P71278 entry or part of it L26I)": "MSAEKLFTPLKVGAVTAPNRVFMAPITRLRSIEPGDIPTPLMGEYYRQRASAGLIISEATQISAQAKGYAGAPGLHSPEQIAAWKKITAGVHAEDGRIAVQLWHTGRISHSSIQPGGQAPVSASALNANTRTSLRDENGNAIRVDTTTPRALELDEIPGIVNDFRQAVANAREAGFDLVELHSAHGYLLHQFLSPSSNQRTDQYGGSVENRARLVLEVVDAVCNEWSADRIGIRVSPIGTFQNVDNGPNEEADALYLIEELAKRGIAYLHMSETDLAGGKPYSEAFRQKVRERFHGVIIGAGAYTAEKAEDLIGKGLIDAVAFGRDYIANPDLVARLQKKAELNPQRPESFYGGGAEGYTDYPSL", "conditions": "for kobs1 / A2 (amplitude of kobs2 out of total absorbance change) / kobs2: 10 mM NADPH or 25 mM NADH, pH 7.0"}, "[3]": {"target": "L25A PETNR (Enterobacter cloacae, UniProt P71278, L26A)", "sequence (P71278 entry or part of it L26A)": "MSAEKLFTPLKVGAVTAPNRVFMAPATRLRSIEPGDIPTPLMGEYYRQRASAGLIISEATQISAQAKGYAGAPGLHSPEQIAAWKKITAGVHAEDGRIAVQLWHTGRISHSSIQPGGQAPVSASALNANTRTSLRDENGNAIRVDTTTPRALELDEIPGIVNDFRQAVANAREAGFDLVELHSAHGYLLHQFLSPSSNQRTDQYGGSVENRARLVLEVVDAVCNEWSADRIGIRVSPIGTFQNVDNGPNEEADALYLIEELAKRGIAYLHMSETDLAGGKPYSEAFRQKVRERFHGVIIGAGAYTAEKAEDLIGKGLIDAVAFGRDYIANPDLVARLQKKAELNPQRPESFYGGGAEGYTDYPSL", "conditions": "for A2 (amplitude of kobs2 out of total absorbance change) / kobs1 / kobs2: pH 7.0"}, "[4]": {"target": "T1, WT PETNR", "test": "pH dependence of FMN reduction of WT PETNR in MTEN buffer", "assay_type": "biochemical, Enterobacter Cloacae PB2", "design": "made in house", "experimental": "(R)-[4-2H]-NADPH at pH 6, pH 7 and pH9 (A) and the corresponding temperature dependencies of the observed primary kinetic isotope effects (B). The measurements were performed in MTEN buffer (50 mM MES, 25 mM Tris, 25 mM ethanola-mine, and 100 mM NaCl), which has a useful buffering capacity and minimal change in ionic strength over the pH range 6-9 in which PETNR is stable; we attempted testing PETNR in pH 5 as well, but the enzyme is unstable at this pH. The observed rate constants of FMN reduction at pH 7 in MTEN buffer are essentially the same to those measured in 50 mM potassium phosphate buffer, pH 7 and similar observation are valid for the KIEs values (Table S3).The rate of FMN reduction is essentially insensitive to pH across the whole temperature range (5-40 °C), and also that KIEs values are essentially not affected by changes in pH (the rate of FMN reduction by (R)-[4-2H]-NADPH is independent of pH as well across all temperatures studied; see Table S3 for extracted thermodynamic parameters). Although these experiments cannot completely exclude any kinetic […]\nof H-transfer and protonation (which would lead to pH-dependent rates) which makes it very likely that the observed rate are reporting directly on the H-transfer step.\nTable S3. Extracted Thermodynamic Parameters from pH Dependence Studies.\n(kJ mol-1) (J mol-1 K-1) (kJ mol-1 K-1)"}, "[5]": {"conditions": "25 °C, 50 mM potassium phosphate pH 7.0, 20 μM enzyme"}, "[6]": {"conditions": "25 °C, 50 mM potassium phosphate pH 7.0, 20 μM enzyme, fast phase"}, "[7]": {"conditions": "T0 = 298 K, fit of kobs1 (5–40 °C) to eq 1"}, "[8]": {"conditions": "5 °C, 10 mM NADPH or 25 mM NADH"}, "[9]": {"conditions": "10 °C, 10 mM NADPH or 25 mM NADH"}, "[10]": {"conditions": "20 °C, 10 mM NADPH or 25 mM NADH"}, "[11]": {"conditions": "25 °C, 10 mM NADPH or 25 mM NADH"}, "[12]": {"conditions": "30 °C, 10 mM NADPH or 25 mM NADH"}, "[13]": {"conditions": "35 °C, 10 mM NADPH or 25 mM NADH"}, "[14]": {"conditions": "40 °C, third phase, 10 mM NADPH or 25 mM NADH"}, "[15]": {"conditions": "40 °C, 10 mM NADPH or 25 mM NADH"}}, "note": "Read-outs that look alike come from different tables or passages of the source."}
{"smiles": "NC(=O)C1=CN([C@@H]2O[C@H](COP(=O)(O)OP(=O)(O)OC[C@H]3O[C@@H](n4cnc5c(N)ncnc54)[C@H](OP(=O)(O)O)[C@@H]3O)[C@@H](O)[C@H]2O)C=CC1", "note": "[NADPH]", "values": [{"measurement": "kobs1", "setting": "[1]; 5 °C", "value": "11.31 ± 0.09", "unit": "s⁻¹"}, {"measurement": "kobs1", "setting": "[1]; 10 °C", "value": "15.23 ± 0.15", "unit": "s⁻¹"}, {"measurement": "kobs1", "setting": "[1]; 15 °C", "value": "20.32 ± 0.25", "unit": "s⁻¹"}, {"measurement": "kobs1", "setting": "[1]; 20 °C", "value": "26.28 ± 0.31", "unit": "s⁻¹"}, {"measurement": "KS", "setting": "[1]; [5]", "value": "103 ± 4", "unit": "µM"}, {"measurement": "kred", "setting": "[1]; [6]", "value": "33.43 ± 0.22", "unit": "s^–1"}, {"measurement": "kobs1", "setting": "[1]; 25 °C", "value": "33.74 ± 0.46", "unit": "s⁻¹"}, {"measurement": "A2 (amplitude of kobs2 out of total absorbance change)", "setting": "[1]; 35 °C", "value": "1.41 ± 0.23", "unit": "%"}, {"measurement": "kobs1", "setting": "[1]; 35 °C", "value": "50.46 ± 0.75", "unit": "s⁻¹"}, {"measurement": "kobs2", "setting": "[1]; 35 °C", "value": "1.19 ± 0.92", "unit": "s⁻¹"}, {"measurement": "A2 (amplitude of kobs2 out of total absorbance change)", "setting": "[1]; 40 °C", "value": "2.29 ± 0.35", "unit": "%"}, {"measurement": "kobs1", "setting": "[1]; 40 °C", "value": "58.49 ± 0.50", "unit": "s⁻¹"}, {"measurement": "kobs2", "setting": "[1]; 40 °C", "value": "1.09 ± 0.16", "unit": "s⁻¹"}, {"measurement": "ΔCp^⧧", "setting": "[1]; [7]", "value": "–0.50 ± 0.05 kJ mol^–1 K^–1"}, {"measurement": "ΔHT0^⧧", "setting": "[1]; [7]", "value": "30.4 ± 0.3", "unit": "kJ mol^–1"}, {"measurement": "ΔST0^⧧", "setting": "[1]; [7]", "value": "–113.9 ± 0.9 J mol^–1 K^–1"}, {"measurement": "kobs1", "setting": "[2]; 5 °C", "value": "10.12 ± 0.04", "unit": "s⁻¹"}, {"measurement": "kobs1", "setting": "[2]; 10 °C", "value": "13.47 ± 0.06", "unit": "s⁻¹"}, {"measurement": "kobs1", "setting": "[2]; 15 °C", "value": "18.07 ± 0.05", "unit": "s⁻¹"}, {"measurement": "A2 (amplitude of kobs2 out of total absorbance change)", "setting": "[2]; 20 °C", "value": "3.28 ± 1.62", "unit": "%"}, {"measurement": "kobs1", "setting": "[2]; 20 °C", "value": "24.33 ± 0.52", "unit": "s⁻¹"}, {"measurement": "kobs2", "setting": "[2]; 20 °C", "value": "2.25 ± 2.63", "unit": "s⁻¹"}, {"measurement": "KS", "setting": "[2]; [5]", "value": "130 ± 8", "unit": "µM"}, {"measurement": "kred", "setting": "[2]; [6]", "value": "29.49 ± 0.49", "unit": "s^–1"}, {"measurement": "kobs1", "setting": "[2]; 25 °C", "value": "30.24 ± 0.42", "unit": "s⁻¹"}, {"measurement": "kobs1", "setting": "[2]; 30 °C", "value": "36.74 ± 0.28", "unit": "s⁻¹"}, {"measurement": "kobs2", "setting": "[2]; 30 °C", "value": "2.57 ± 0.62", "unit": "s⁻¹"}, {"measurement": "A2 (amplitude of kobs2 out of total absorbance change)", "setting": "[2]; 35 °C", "value": "5.72 ± 0.36", "unit": "%"}, {"measurement": "A2 (amplitude of kobs2 out of total absorbance change)", "setting": "[2]; 40 °C", "value": "10.89 ± 0.63", "unit": "%"}, {"measurement": "kobs1", "setting": "[2]; 40 °C", "value": "49.82 ± 1.14", "unit": "s⁻¹"}, {"measurement": "ΔCp^⧧", "setting": "[2]; [7]", "value": "–0.43 ± 0.07 kJ mol^–1 K^–1"}, {"measurement": "ΔHT0^⧧", "setting": "[2]; [7]", "value": "30.4 ± 0.6", "unit": "kJ mol^–1"}, {"measurement": "ΔST0^⧧", "setting": "[2]; [7]", "value": "–114.9 ± 2.0 J mol^–1 K^–1"}, {"measurement": "A2 (amplitude of kobs2 out of total absorbance change)", "setting": "[3]; [8]", "value": "2.93 ± 0.55", "unit": "%"}, {"measurement": "kobs1", "setting": "[3]; [8]", "value": "19.18 ± 0.22", "unit": "s⁻¹"}, {"measurement": "A2 (amplitude of kobs2 out of total absorbance change)", "setting": "[3]; [9]", "value": "2.70 ± 0.56", "unit": "%"}, {"measurement": "kobs1", "setting": "[3]; [9]", "value": "26.03 ± 0.17", "unit": "s⁻¹"}, {"measurement": "kobs1", "setting": "[3]; 15 °C, 10 mM NADPH or 25 mM NADH", "value": "34.93 ± 1.25", "unit": "s⁻¹"}, {"measurement": "A2 (amplitude of kobs2 out of total absorbance change)", "setting": "[3]; [10]", "value": "3.58 ± 0.47", "unit": "%"}, {"measurement": "kobs2", "setting": "[3]; [10]", "value": "2.42 ± 0.48", "unit": "s⁻¹"}, {"measurement": "increase in KS vs WT PETNR", "setting": "[3]; 25 °C", "value": 2, "unit": "fold"}, {"measurement": "kred", "setting": "[3]; [6]", "value": "55.75 ± 0.35", "unit": "s^–1"}, {"measurement": "rate of H-transfer, faster than WT PETNR", "setting": "[3]; 25 °C, kred vs WT", "value": 60, "unit": "%"}, {"measurement": "A2 (amplitude of kobs2 out of total absorbance change)", "setting": "[3]; [11]", "value": "4.73 ± 0.26", "unit": "%"}, {"measurement": "kobs1", "setting": "[3]; [11]", "value": "53.77 ± 1.15", "unit": "s⁻¹"}, {"measurement": "kobs2", "setting": "[3]; [11]", "value": "1.54 ± 0.45", "unit": "s⁻¹"}, {"measurement": "A2 (amplitude of kobs2 out of total absorbance change)", "setting": "[3]; [12]", "value": "7.50 ± 0.21", "unit": "%"}, {"measurement": "kobs1", "setting": "[3]; [12]", "value": "59.63 ± 2.29", "unit": "s⁻¹"}, {"measurement": "A2 (amplitude of kobs2 out of total absorbance change)", "setting": "[3]; [13]", "value": "16.48 ± 0.53", "unit": "%"}, {"measurement": "kobs1", "setting": "[3]; [13]", "value": "68.39 ± 8.69", "unit": "s⁻¹"}, {"measurement": "kobs2", "setting": "[3]; [13]", "value": "0.51 ± 0.17", "unit": "s⁻¹"}, {"measurement": "A3 (amplitude of third phase)", "setting": "[3]; [14]", "value": "19.34 ± 0.54", "unit": "%"}, {"measurement": "kobs3", "setting": "[3]; [14]", "value": "3.55 ± 1.03"}, {"measurement": "A2 (amplitude of kobs2 out of total absorbance change)", "setting": "[3]; [15]", "value": "25.54 ± 0.91", "unit": "%"}, {"measurement": "kobs1", "setting": "[3]; [15]", "value": "71.16 ± 6.56", "unit": "s⁻¹"}, {"measurement": "kobs2", "setting": "[3]; [15]", "value": "0.26 ± 0.06", "unit": "s⁻¹"}, {"measurement": "total absorbance change attributed to kobs2", "setting": "[3]; 40 °C, sum of two slow phases (kobs2 and kobs3)", "value": "~40", "unit": "%"}, {"measurement": "ΔCp^⧧", "setting": "[3]; [7]", "value": "–0.92 ± 0.12 kJ mol^–1 K^–1"}, {"measurement": "ΔHT0^⧧", "setting": "[3]; [7]", "value": "23.3 ± 1.2", "unit": "kJ mol^–1"}, {"measurement": "ΔST0^⧧", "setting": "[3]; [7]", "value": "–133.7 ± 4.1 J mol^–1 K^–1"}, {"measurement": "ΔCp⧧", "setting": "[4]; pH 6, MTEN buffer", "value": "-0.58 ± 0.10", "unit": "kJ mol-1 K-1"}, {"measurement": "ΔHT0⧧", "setting": "[4]; pH 6, MTEN buffer", "value": "27.2 ± 0.6", "unit": "kJ/mol"}, {"measurement": "ΔST0⧧", "setting": "[4]; pH 6, MTEN buffer", "value": "-124.3 ± 2.0", "unit": "J mol-1 K-1"}, {"measurement": "ΔCp⧧", "setting": "[4]; pH 7, MTEN buffer", "value": "-0.61 ± 0.08", "unit": "kJ mol-1 K-1"}, {"measurement": "ΔHT0⧧", "setting": "[4]; pH 7, MTEN buffer", "value": "27.6 ± 0.7", "unit": "kJ/mol"}, {"measurement": "ΔST0⧧", "setting": "[4]; pH 7, MTEN buffer", "value": "-122.7 ± 1.6", "unit": "J mol-1 K-1"}, {"measurement": "ΔCp⧧", "setting": "[4]; pH 9, MTEN buffer", "value": "-0.45 ± 0.12", "unit": "kJ mol-1 K-1"}, {"measurement": "ΔHT0⧧", "setting": "[4]; pH 9, MTEN buffer", "value": "28.9 ± 0.7", "unit": "kJ/mol"}, {"measurement": "ΔST0⧧", "setting": "[4]; pH 9, MTEN buffer", "value": "-118.6 ± 2.3", "unit": "J mol-1 K-1"}]}
